Source: paper PMC12394552, “Multi-biological activity evaluation of Sn(П), Zn(П) and Fe(П) complexes based on thiocarbohydrazide schiff bases: synthesis, spectroscopic investigations and fluorescence studies” (Scientific Reports, 2025)
Converted amounts (≈) assume the structure as drawn. Where two headings read alike, the source gives them in different places.

What was measured:
[1] = test system: Escherichia coli ATCC 8739; assay: MIC determination, broth microdilution (EUCAST adapted); format: cell-based; details: ATCC8739, read-out: E. coli MIC value
Experimental: (§1) The compounds were tested against Gram-positive bacteria (Staphylococcus aureus ATCC 6538), Gram-negative bacteria (Escherichia coli ATCC 8739) and yeast (Candida albicansATCC10231). […] For bacterial strains, the EUCAST (2025) method was adapted. A few colonies of each bacterial culture previously grown on Mueller-Hinton agar for 24–48 h were suspended in normal saline and adjusted to 0.5 McFarland (1.5 × 10^8 CFU/mL). A 1/10 dilution was prepared in Mueller-Hinton broth (MHB) for the inoculation. In the wells of a 96-well flat-bottom microtiter plate, double serial dilutions of each compound were prepared in MHB. Each well was inoculated with the bacteria to achieve ca. 5 × 10^5 CFU/mL, and the plates were incubated at 37 °C overnight. Positive control (bacteria in culture medium only) and negative control (culture medium) were prepared. Each compound was tested in duplicate. After incubation, the plates were inspected visually for growth inhibition. To test the antimicrobial activity of DMSO, double serial dilutions of DMSO in broth medium were prepared and processed as the samples, but without the addition of the compounds. The antibacterial drug ciprofloxacin was used as a reference for comparison.
(§2) For Candida albicans, the same procedure applied to bacteria was used, except after inoculation, the plates were incubated at 35 °C for 24 h, and after incubation, the absorbance was measured at 530 nm using a plate reader. […] The absorbance of the wells was corrected by subtracting the absorbance of the blank. […] The antifungal drug fluconazole was used as a reference for comparison.

[2] = test system: Staphylococcus aureus ATCC 6538; assay: as above; format: cell-based; details: ATCC6538, read-out: S. aureus MIC value
Experimental: as §1, §2

[3] = test system: Candida albicans ATCC10231; assay: MIC determination, broth microdilution, absorbance 530 nm; format: cell-based; details: ATCC10231, 24 h, read-out: C. albicans MIC value at 50% inhibition
Experimental: as §1, §2

[4] = DPPH free radical scavenger assay; details: values given in µM; 1 h incubation, 517 nm; test range 6.25–200 µM; mean ± SD n = 4
From the text: This method depends on the reduction of the radicals, resulting in a color change from oxidized purple to reduced yellow. Principally, Diphenyl-2-picryl-hydrazyl (DPPH) undergoes reduction in methanol (MeOH) solution, in the presence of a hydrogen-donating compound, due to the formation of the non-radical form DPPH-H. This color change can be quantitatively measured using a 515–520 nm spectrophotometer. In contrast to other radical scavenging assays, a DPPH radical is stable and can provide reproducible spectroscopic values[41],[42]. A DPPH solution (0.2 mM) was diluted with MeOH and then mixed with treatment compounds as well as ascorbic acid in a concentration ratio of 1:1 using a 96-well plate (so that a final concentration range 6.25–200 µM was obtained for test agents); the treated solution was incubated one hour isolated from light. Finally, a change in absorbance at 517 nm wavelength was measured using a microplate reader (Bio-Tek Instrument, USA). Ascorbic acid was the robust and classical standard radical scavenging reference agent for comparison purposes[43],[44]. The calculation of the DPPH radical scavenging activity inhibition was determined by the following equation, where A represents photometric absorbance: in % = (A control – A sample) / A control x 100%)[45].

RAW 264.7 macrophages = assay: SRB cytotoxicity on RAW 264.7 viability; format: cell-based; details: Mus musculus, RAW264.7, read-out: RAW 264.7 viability IC50 value
Experimental: (§3) All malignancy cell lines were cultured in high glucose DMEM (Bio Whittaker, Verviers, Belgium) containing 10% FBS, 4-(2-hydroxyethyl)-1-piperazineethanesulfonic acid (HEPES) Buffer (10 mM), L-glutamine (2 mM), gentamicin (50 µg/mL), penicillin (100 U/mL), and streptomycin sulfate ([…]) from Sigma (St. Luis, MO, USA) whereas Sulforhodamine B was from Santa Cruz Biotechnology (Inc. Texas, USA). Surviving cancer cell lines provide numerous advantages; they provide a pure and continuous supply of cells, thus overcoming any ethical barriers concerning human tissue usage, and are cost-effective. For cytotoxicity screening, adherent monolayers of all procured malignancies’ cell lines were examined. Periodontal ligament fibroblasts (PDL) were used to determine selective cytotoxicity.
RAW 264.7 mouse macrophage cell line (ATCC® TIB-71) were cultured in high glucose DMEM supplemented with 10% (FBS), penicillin (100 U/mL), streptomycin (100 µg/mL), and L-glutamate (100 µg/mL) in a 37 °C humidified atmosphere with 95% air and 5% CO2. Confluent macrophages (2 × 10^5/well) were incubated with inflammation-priming lipopolysaccharide (LPS; Sigma, St. Luis, MO, USA) with either indomethacin as the reference agent[39] or treatment compounds at different concentrations (1.563-200 µM). Griess reagent was mixed with aliquots of cell culture media and incubated at R.T. for 10 min. Absorbance at 550 nm was determined using a microplate reader (Spectro Scan 80D UV-VIS spectrophotometer (Sedico Ltd., Nicosia, Cyprus). The nitrite concentration was determined by comparison with a sodium nitrite standard curve. SRB cytotoxicity protocol was performed for evaluation of the effect of the studied test compounds on RAW 264.7 viability.

[5] = test system: Periodontal ligament fibroblasts (PDL); assay: SRB selective cytotoxicity in normal fibroblasts; format: cell-based
Experimental: as §3

A375 skin melanoma = assay: SRB antiproliferative assay; format: cell-based; details: Homo sapiens, A-375, 72 h; read-out: Cytotoxicity (as of %Control) IC50 value, A375 skin melanoma
Experimental: as §3

[6] = test system: CACO2 colorectal cancer cell line; assay: SRB antiproliferative assay; format: cell-based; details: Homo sapiens, Caco-2, 72 h, read-out: Cytotoxicity (as of %control) IC50 value, CACO2
Experimental: as §3

[7] = test system: HCT116 colorectal cancer cell line; assay: SRB antiproliferative assay; format: cell-based; details: Homo sapiens, HCT-116, 72 h, read-out: Cytotoxicity (as of %control) IC50 value, HCT116
Experimental: as §3

[8] = test system: HT29 colorectal cancer cell line; assay: SRB antiproliferative assay; format: cell-based; details: Homo sapiens, HT-29, 72 h, read-out: Cytotoxicity (as of %control) IC50 value, HT29
Experimental: as §3

[9] = test system: SW620 colorectal cancer cell line; assay: SRB antiproliferative assay; format: cell-based; details: Homo sapiens, SW-620, 72 h; read-out: Cytotoxicity (as of %control) IC50 value, SW620
Experimental: as §3

U87 glioblastoma = assay: SRB antiproliferative assay; format: cell-based; details: Homo sapiens, 72 h, read-out: Cytotoxicity (as of %Control) IC50 value, U87 Gliobalstoma
Experimental: as §3

A549 lung malignancy = assay: SRB antiproliferative assay; format: cell-based, human; details: read-out: Cytotoxicity (as of %Control) IC50 value, A549 lung malignancy
Experimental: as §3

[10] = test system: BT-549 invasive mammary malignancy; assay: SRB antiproliferative assay; format: cell-based, human; details: read-out: Cytotoxicity (as of %control) IC50 value, BT-549 invasive mammary malignancy
Experimental: as §3

Hela cervix malignancy = assay: SRB antiproliferative assay; format: cell-based, human; details: read-out: Cytotoxicity (as of %Control) IC50 value, Hela cervix malignancy
Experimental: as §3

MCF7 mammary malignancy = assay: SRB antiproliferative assay; format: cell-based, human; details: read-out: Cytotoxicity (as of %control) IC50 value, MCF7 mammary malignancy
Experimental: as §3

[11] = test system: MDA-MB-231 invasive mammary malignancy; assay: SRB antiproliferative assay; format: cell-based, human; details: read-out: Cytotoxicity (as of %control) IC50 value, MDA-MB-231 invasive mammary malignancy
Experimental: as §3

[12] = test system: MDA-MB-453 invasive mammary malignancy; assay: SRB antiproliferative assay; format: cell-based, human; details: read-out: Cytotoxicity (as of %control) IC50 value, MDA-MB-453 invasive mammary malignancy
Experimental: as §3

[13] = test system: PANC1 pancreatic cell line; assay: SRB antiproliferative assay; format: cell-based, human; details: read-out: Cytotoxicity (as of %control) IC50 value, PANC1
Experimental: as §3

PC3 prostate malignancy = assay: SRB antiproliferative assay; format: cell-based, human; details: read-out: Cytotoxicity (as of %Control) IC50 value, PC3 prostate malignancy
Experimental: as §3

[14] = test system: SW480 colorectal cancer cell line; assay: SRB antiproliferative assay; format: cell-based, human; details: read-out: Cytotoxicity (as of %control) IC50 value, SW480
Experimental: as §3

T47D mammary malignancy = assay: SRB antiproliferative assay; format: cell-based, human; details: read-out: Cytotoxicity (as of %control) IC50 value, T47D mammary malignancy
Experimental: as §3

[15] = 72 h incubations, 3.125-200µM range, mean ± SD n = 4

`COc1ccc(/C=N/NC(=S)N/N=C/c2ccc(OC)cc2)cc1` [L2, 1,5-bis (4-methoxyanisaldehyde) thiocarbohydrazine] gave an MIC [1] of 31.3 µg/mL (≈ 91.4 µM), an MIC [2] of 15.6 µg/mL (≈ 45.6 µM) and an MIC [3] of 31.3 µg/mL (≈ 91.4 µM). For the same molecule, the IC50 [4] was 18.1 ± 2.04 µM, the IC50 (RAW 264.7 macrophages) was > 200 µM and the IC50 ([5]; Fibroblast) was > 200 µM. The IC50 (A375 skin melanoma) was > 200 µM, the IC50 [6] was > 200 µM and the IC50 [7] was > 200 µM. The IC50 [8] was > 200 µM, the IC50 [9] was 117 ± 3.81 µM and the IC50 (U87 glioblastoma) was > 200 µM. The IC50 (A549 lung malignancy; Homo sapiens, A549, 72 h) was 36.6 ± 0.2 µM, the IC50 ([10]; Homo sapiens, BT-549, 72 h) was 94.8 ± 4.17 µM and the IC50 (Hela cervix malignancy; Homo sapiens, HeLa, 72 h) was > 200 µM. For the same molecule, the IC50 (MCF7 mammary malignancy; Homo sapiens, MCF7, 72 h) was > 200 µM, the IC50 ([11]; Homo sapiens, MDA-MB-231, 72 h) was > 200 µM and the IC50 ([12]; Homo sapiens, MDA-MB-453, 72 h) was > 200 µM. The IC50 ([13]; Homo sapiens, PANC-1, 72 h) was > 200 µM, the IC50 (PC3 prostate malignancy; Homo sapiens, 72 h) was > 200 µM and the IC50 ([14]; Homo sapiens, SW480, 72 h) was 51.6 ± 3.07 µM. The IC50 (T47D mammary malignancy; Homo sapiens, T47D, 72 h) was > 200 µM.
For `N.N.[Cl][Pt][Cl]` [Cisplatin, reference compound], the IC50 ([5]; SRB, normal PDL fibroblasts, unit printed for cisplatin cell and footnote) was 5.6 µM, the IC50 (A549 lung malignancy; [15]) was 71.9 ± 2.9 µM and the IC50 [10, 15] was 3.77 ± 0.25 µM. It also gave an IC50 (Hela cervix malignancy; [15]) of 27.3 ± 0.9 µM, an IC50 (MCF7 mammary malignancy; [15]) of 31.6 ± 0.44 µM and an IC50 ([11]; 72 h incubations, 3.125-200 µM range, mean ± SD n = 4) of 11.8 ± 1.4 µM. The IC50 [12, 15] was 9.8 ± 0.1 µM, the IC50 [13, 15] was 41.5 ± 0.4 µM and the IC50 (PC3 prostate malignancy; [15]) was 12.5 ± 0.2 µM. The IC50 [14, 15] was 8.92 ± 0.24 µM and the IC50 (T47D mammary malignancy; [15]) was 34.2 ± 0.5 µM.
For `COc1ccc2c(c1)c(CC(=O)O)c(C)n2C(=O)c1ccc(Cl)cc1` [Indomethacin, reference compound], the IC50 (RAW 264.7 macrophages) was > 200 µM.
